The target of experiment [1] is T1, Amine oxidase [flavin-containing] B (Homo sapiens, UniProt P27338).
T1 sequence (P27338 whole entry): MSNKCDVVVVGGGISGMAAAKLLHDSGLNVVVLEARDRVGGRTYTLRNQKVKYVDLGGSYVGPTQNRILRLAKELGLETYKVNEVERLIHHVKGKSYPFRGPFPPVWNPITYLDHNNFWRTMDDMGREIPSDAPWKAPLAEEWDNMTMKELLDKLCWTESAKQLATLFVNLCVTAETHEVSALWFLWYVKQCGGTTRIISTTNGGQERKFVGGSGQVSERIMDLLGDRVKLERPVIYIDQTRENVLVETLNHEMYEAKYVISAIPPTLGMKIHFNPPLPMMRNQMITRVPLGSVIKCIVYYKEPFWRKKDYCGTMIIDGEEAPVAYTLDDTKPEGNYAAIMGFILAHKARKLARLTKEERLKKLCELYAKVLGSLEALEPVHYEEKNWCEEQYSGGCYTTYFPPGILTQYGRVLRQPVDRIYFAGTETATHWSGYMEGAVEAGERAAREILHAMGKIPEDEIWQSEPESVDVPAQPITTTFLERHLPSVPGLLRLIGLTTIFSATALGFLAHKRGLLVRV
Description: Inhibition of human MAOB expressed in BTI insect cells. The format is cell-based.

The next experiment is filed under the species Homo sapiens. The experiment in a line: Selectivity ratio of IC50 for human MAOA to IC50 for human MAOB.
The target of experiment [2] is T2, Amine oxidase [flavin-containing] A (Homo sapiens, UniProt P21397).
T2 sequence (P21397 whole entry): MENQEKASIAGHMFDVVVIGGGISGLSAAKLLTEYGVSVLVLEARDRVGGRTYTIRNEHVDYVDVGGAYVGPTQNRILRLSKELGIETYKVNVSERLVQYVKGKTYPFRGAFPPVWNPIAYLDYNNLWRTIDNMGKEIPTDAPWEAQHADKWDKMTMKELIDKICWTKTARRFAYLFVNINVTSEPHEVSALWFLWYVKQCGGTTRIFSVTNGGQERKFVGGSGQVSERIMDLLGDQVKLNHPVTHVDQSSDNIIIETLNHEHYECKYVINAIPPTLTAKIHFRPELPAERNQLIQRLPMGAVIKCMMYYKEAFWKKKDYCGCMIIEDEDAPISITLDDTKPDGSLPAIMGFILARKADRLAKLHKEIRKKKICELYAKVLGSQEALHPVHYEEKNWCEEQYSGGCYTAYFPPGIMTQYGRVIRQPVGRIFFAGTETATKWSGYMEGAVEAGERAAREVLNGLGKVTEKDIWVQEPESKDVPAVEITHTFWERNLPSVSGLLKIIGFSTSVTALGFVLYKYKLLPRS
The experiment in a line: Inhibition of MAOA expressed in BTI insect cells at 100 uM.

The target in experiment [3] is T2, Amine oxidase [flavin-containing] A. The experiment in a line: Inhibition of human MAOA expressed in BTI insect cells.

As for `COc1ccc(-c2cc3cc(C)cc(Br)c3oc2=O)cc1`, the half-inhibitory concentration (IC50) in experiment [1] was 3.23 nM; in experiment [2], “Not Active”. For the same compound, the Ratio IC50 in the experiment filed under Homo sapiens is more than 31000.

As to `COc1cc(OC)cc(-c2cc3cc(C)cc(Br)c3oc2=O)c1`, the IC50 in experiment [1] is 7.12 nM; in experiment [2] it was “Not Active”. The Ratio IC50 in the experiment filed under Homo sapiens is more than 14000.

As to `COc1cc(-c2cc3cc(C)cc(Br)c3oc2=O)cc(OC)c1OC`, the IC50 in experiment [1] is 4890 nM; in experiment [3], 31.2 µM. Also, the Ratio IC50 in the experiment filed under Homo sapiens was 6.4.

On to `Cc1cc(Br)c2oc(=O)c(-c3ccccc3)cc2c1`, for which the IC50 in experiment [1] is 11.1 nM; in experiment [2] it was “Not Active”. The Ratio IC50 in the experiment filed under Homo sapiens is more than 9050.

For `Cc1ccc2oc(=O)c(-c3ccccc3Br)cc2c1`, the figures for the IC50 in experiment [1] and in experiment [2] were 4300 nM and “Not Active”, respectively. Further, in the experiment listed under Homo sapiens, the Ratio IC50 is more than 23.

The values above are taken from ChEMBL document CHEMBL1221255, “New halogenated 3-phenylcoumarins as potent and selective MAO-B inhibitors” (Bioorg Med Chem Lett, 2010).
